What was measured:
Experiment in all cases: Post-emergence herbicidal action against harmful plants
Assay type in all cases: in vivo
[1] = test system: PHBPU Pharbitis purpureum; conditions: dosage 20 g/ha
Description: (§1) AMARE Amaranthus retroflexus PHBPU Pharbitis purpureum Seeds of monocotyledonous and dicotyledonous weed and crop plants are laid out in sandy loam in wood-fiber pots, covered with soil and cultivated in a greenhouse under good growth conditions. 2 to 3 weeks after sowing, the test plants are treated at the one-leaf stage. The compounds of the invention, formulated in the form of wettable powders (WP) or as emulsion concentrates (EC), are then sprayed onto the green parts of the plants in the form of an aqueous suspension or emulsion at a water application rate equating to 600 to 800 l/ha, with addition of 0.2% wetting agent. After the test plants have been left to stand in the greenhouse under optimal growth conditions for about 3 weeks, the action of the preparations is assessed visually in comparison to untreated controls (herbicidal action in percent (%): 100% activity=the plants have died, 0% activity=like control plants).

[2] = test system: AMARE Amaranthus retroflexus; conditions: dosage 80 g/ha, assessed visually after about 3 weeks, 100% = plants have died
Description: as §1

SETVI Setaria viridis = conditions: dosage 80 g/ha, assessed visually after about 3 weeks, 100% = plants have died
Description: as §1, with “SETVI Setaria viridis” for “AMARE Amaranthus retroflexus PHBPU Pharbitis purpureum”

[3] = visual scoring after about 3 weeks vs untreated controls (100% = plants have died, 0% = like control plants)
[4] = assessed visually after about 3 weeks, 100% = plants have died

| Compound | Activity against AMARE [2] | Activity against SETVI (SETVI Setaria viridis) | also measured |
| --- | --- | --- | --- |
| CSc1c(C)ccc(C(=O)Nc2nnc(C)o2)c1C | – | – | Activity against PHBPU [1, 3]: 60% |
| CSc1c(C)ccc(C(=O)Nc2nnc(C)o2)c1Br | – | – | Activity against PHBPU [1, 3]: 0% |
| CSc1c(Br)ccc(C(=O)Nc2nnc(C)o2)c1C | – | – | Activity against PHBPU [1, 3]: 10% |
| CSc1c(C)ccc(C(=O)Nc2ncnn2C)c1C | 90% | – | – |
| CSc1c(C)ccc(C(=O)Nc2ncnn2C)c1Br | 70% | – | – |
| Cc1ccc(C(=O)Nc2ncnn2C)c(C)c1 | 0% | – | – |
| Cc1ccc(C(=O)Nc2ncnn2C)c(C)c1[S+](C)[O-] (stereo not shown) | 90% | – | – |
| Cc1ccc(C(=O)Nc2ncnn2C)c(Br)c1[S+](C)[O-] (stereo not shown) | 70% | – | – |
| Cc1ccc(C(=O)Nc2ncnn2C)c(C)c1S(C)(=O)=O | 90% | – | – |
| Cc1c(C(=O)Nc2ncnn2C)ccc(Cl)c1S(C)(=O)=O | 60% | – | – |
| Cc1ccc(C(=O)Nc2ncnn2C)c(Br)c1S(C)(=O)=O | 60% | – | – |
| CSc1c(C)ccc(C(=O)Nc2nonc2C)c1C | – | 0% | – |
| CSc1c(Cl)ccc(C(=O)Nc2nonc2C)c1C | – | 0% | – |
| Cc1nonc1NC(=O)c1ccc(C(F)(F)F)c(S(C)(=O)=O)c1C | – | 40% | – |
| Cc1nonc1NC(=O)c1ccc(C#N)c(S(C)(=O)=O)c1C | – | 0% | – |
| COSc1c(C)ccc(C(=O)Nc2nnc(C)o2)c1C | – | – | Activity against PHBPU [1, 4]: 60% |
| COSc1c(C)ccc(C(=O)Nc2nnc(C)o2)c1Br | – | – | Activity against PHBPU [1, 4]: 40% |
| Cc1ccc(C(=O)Nc2nonc2C)c(C)c1S(C)(=O)=O [drawing 24] | – | 40% | – |
| Cc1ccc(C(=O)Nc2nonc2C)c(C)c1S(C)(=O)=O [drawing 27] | – | 80% | – |
